Data set [1] deals with human colon cancer xenograft. Put plainly: Human colon cancer xenograft-bearing mice. Type of data set: in vivo. As to conditions: xenograft mouse models of colorectal and breast cancer (FIG. 10). (A xenograft is tissue or cells of one species grown in another, often human tumour cells in immunodeficient mice.)
A further data set relates to MOLM14 (AML). Put plainly: Cell viability of MOLM14 AML cells. The note with it: Homo sapiens, MOLM-14, 72 h.
The test system of another data set is MV411 (AML). Kind of data set: Cell viability of MV411 AML cells.
The test system of another data set is MV411 AML cells. Kind of data set: MV411 AML xenograft model.
Data set [2] has as its system acute myeloid leukemia (AML) cell lines. Put plainly: AML cell lines, in vitro efficacy.
In data set [3] the test system is integrated stress response, Akt/ERK phosphorylation. Kind of data set: Integrated stress response and Akt/ERK phosphorylation. Type of data set: cell-based. As to conditions: earlier time points compared to ONC201 (FIG. 9).
The next data set concerns HCT116 cells. Put plainly: Anticancer efficacy in HCT116 cells. Type of data set: cell-based, human. As to conditions: HCT116, nanomolar concentrations (FIG. 8).
Data set [4] has as its system normal cells (MRC5 lung fibroblasts, Hs27a bone marrow cells). Put plainly: In vitro toxicity to normal cells. The class given is cell-based.
The test system of the next data set is leukemia cell lines. Kind of data set: Leukemia cell lines. Type of data set: cell-based. As to conditions: 55 leukemia cell lines (FIG. 11, 12).
Data set [5] concerns NCI60 cancer cell line panel. Put plainly: NCI60 cancer cell line panel. Type of data set: cell-based. As to conditions: NCI60 panel (FIG. 4).
The subject of a further data set is human cancer cells. Put plainly: Viability of human cancer cells at 72 hours post-treatment. The class given is cell-based. As to conditions: relative to the potency of ONC201; viability at 72 hours post-treatment. As for the experimental part:
A number of imipridones were prepared based on the syntheses above. Viability of human cancer cells was measured at 72 hours post-treatment with each compound.

The values below come from US12102639B2, “Imipridones for gliomas” (Oncoceutics, Inc., priority 2017, dated 2024).

Each structure is given as a SMILES string. Entries after “also recorded” stand apart in the source; their conditions may differ.

The term IC50 denotes the concentration that gives 50% inhibition. Read a low IC50 as higher potency. Take `O=C1C2=C(CCN(Cc3ccccc3)C2)N2CCN=C2N1Cc1ccc(C(F)(F)F)cc1` [ONC212]: the anti-cancer efficacy entry was “oral and IP anti-cancer efficacy” in data set [1]; “more responsive to ONC212 than ONC201; also recorded: nanomolar range in 55 leukemia cell lines” with leukemia cell lines; “demonstrated anti-cancer efficacy across various tumor types” in data set [5]. The IC50 came to 10 nM in the data set with MOLM14 (AML) and 10 nM in the data set with MV411 (AML) (Homo sapiens, MV4-11, 72 h). For the same compound, the “efficacy in AML cells resistant to cytarabine” value with MV411 (AML) (MV411, 5 nM-5 μM, 24 h (FIG. 14A)) is “efficacious”. The “leukemia xenograft tumor growth” value is reported as “significantly reduced leukemia xenograft tumor growth” in the data set on MV411 AML cells (50 mg/kg, oral weekly administration (ONC201 at similar doses)); “not efficacious” in the data set on MV411 AML cells (biweekly dosing with 25 mg/kg); “not efficacious” with MV411 AML cells (weekly/biweekly dosing with 5 mg/kg). In [2] (250 nM, MOLM14 and MV411 AML cells, viability at 96 h), the “cell viability after 8 hr exposure” value was “robust reduction in cell viability”. Besides, in data set [2] (AML cell lines, Table 4), the “potency compared to ONC201” value is on record as “up to 400 fold”. The “integrated stress response and Akt/ERK phosphorylation” value in data set [3] was “induces the integrated stress response and inhibits Akt/ERK phosphorylation at nanomolar concentrations”. Also, in the data set with HCT116 cells, the cell death entry is recorded as “induced cell death”. Besides, in [4], the “in vitro toxicity to normal cells” value was “but not normal cells (MRC5); also recorded: non-toxic to normal cells at efficacious concentrations”. Moreover, the “Relative Potency” value with human cancer cells is “A (A Indicates a potency increase of >2-fold of ONC201)”.
